Source: ChEMBL document CHEMBL1201862, “PubChem BioAssay data set” (2004)
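Following 48 hours of exposure in 96-well plates, responses at five concentrations were used to interpolate endpoints linearly. GI50 = concentration required for 50% inhibition of growth.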 Calls of active or inactive are those of the source. No stated cut-off is given here; in the data, active = GI50 up to about 1.1 µM and inactive = higher.

Legend:
Experiment in all cases: NCI-60 cell line screen, 48 h
786-0 = test system: 786-0
CAKI-1 = test system: CAKI-1
DU-145 = test system: DU-145
EKVX = test system: EKVX
HL-60 = test system: HL-60
HT-29 = test system: HT-29
Hs-578T = test system: Hs-578T
LOX IMVI = test system: LOX IMVI
MCF7 = test system: MCF7
MDA-N = test system: MDA-N
MOLT-4 = test system: MOLT-4
NCI-H226 = test system: NCI-H226
NCI-H460 = test system: NCI-H460
SF-295 = test system: SF-295
SK-OV-3 = test system: SK-OV-3
SN12C = test system: SN12C
T47D = test system: T47D
TK-10 = test system: TK-10
U-251 = test system: U-251
UACC-62 = test system: UACC-62

Row | SMILES | GI50 (786-0) | GI50 (CAKI-1) | GI50 (DU-145) | GI50 (EKVX) | GI50 (HL-60) | GI50 (HT-29) | GI50 (Hs-578T) | GI50 (LOX IMVI) | GI50 (MCF7) | GI50 (MDA-N) | GI50 (MOLT-4) | GI50 (NCI-H226) | GI50 (NCI-H460) | GI50 (SF-295) | GI50 (SK-OV-3) | GI50 (SN12C) | GI50 (T47D) | GI50 (TK-10) | GI50 (U-251) | GI50 (UACC-62)
1 | O=C(O)c1ccccc1/C=N\N=C1NCCN1 | > 100 µM (inactive) | > 100 µM (inactive) | > 100 µM (inactive) | > 100 µM (inactive) | > 100 µM (inactive) | > 100 µM (inactive) | > 100 µM (inactive) | > 100 µM (inactive) | > 100 µM (inactive) | > 100 µM (inactive) | > 100 µM (inactive) | 21.6 µM (inactive) | > 100 µM (inactive) | > 100 µM (inactive) | > 100 µM (inactive) | > 100 µM (inactive) | > 100 µM (inactive) | > 100 µM (inactive) | > 100 µM (inactive) | > 100 µM (inactive)
2 | C=[N+](CNC(=O)CNC(=O)C(Cc1ccc([N+](=O)[O-])cc1)NC(=O)OC(C)(C)C)C(=O)CNC(=O)C(Cc1ccc([N+](=O)[O-])cc1)NC(=O)OC(C)(C)C (stereo not given) | 69.5 µM (inactive) | > 100 µM (inactive) | > 100 µM (inactive) | > 100 µM (inactive) | 13.3 µM (inactive) | 49.1 µM (inactive) | 26.1 µM (inactive) | 15.7 µM (inactive) | 40.8 µM (inactive) | > 10 µM (inactive) | 17 µM (inactive) | 60.7 µM (inactive) | > 100 µM (inactive) | 46.6 µM (inactive) | > 100 µM (inactive) | 47.9 µM (inactive) | > 10 µM (inactive) | > 100 µM (inactive) | 39.4 µM (inactive) | 21.6 µM (inactive)
3 | Cc1cc(C)c(NC(=S)NC(=O)c2ccccc2)cc1C | > 100 µM (inactive) | > 100 µM (inactive) | > 100 µM (inactive) | > 100 µM (inactive) | > 100 µM (inactive) | > 100 µM (inactive) | > 100 µM (inactive) | > 100 µM (inactive) | 38.2 µM (inactive) | 78.9 µM (inactive) | 93.5 µM (inactive) | > 100 µM (inactive) | > 100 µM (inactive) | 34.4 µM (inactive) | > 100 µM (inactive) | > 100 µM (inactive) | 55.7 µM (inactive) | > 100 µM (inactive) | 64.1 µM (inactive) | > 100 µM (inactive)
4 | O=C(ON=C1c2ccccc2C(Br)C(Br)c2ccccc21)c1cc([N+](=O)[O-])cc([N+](=O)[O-])c1 (stereo not given) | 14.9 µM (inactive) | 20.5 µM (inactive) | 25.9 µM (inactive) | 25.4 µM (inactive) | 0.158 µM (active) | 16.3 µM (inactive) | 23 µM (inactive) | 13.9 µM (inactive) | 24.7 µM (inactive) | 22.1 µM (inactive) | 7.45 µM (inactive) | 24.9 µM (inactive) | 19.2 µM (inactive) | 35 µM (inactive) | 27.1 µM (inactive) | 18.5 µM (inactive) | 35.2 µM (inactive) | 23.2 µM (inactive) | 15.8 µM (inactive) | 18.7 µM (inactive)
5 | CC(=O)C(CN1CCOCC1)C(c1ccccc1)c1c(O)c2ccccc2oc1=O (stereo not given) | > 100 µM (inactive) | > 100 µM (inactive) | > 100 µM (inactive) | > 100 µM (inactive) | 41.3 µM (inactive) | > 100 µM (inactive) | > 100 µM (inactive) | > 100 µM (inactive) | > 100 µM (inactive) | > 100 µM (inactive) | > 100 µM (inactive) | > 100 µM (inactive) | > 100 µM (inactive) | > 100 µM (inactive) | > 100 µM (inactive) | > 100 µM (inactive) | > 100 µM (inactive) | > 100 µM (inactive) | > 100 µM (inactive) | > 100 µM (inactive)
6 | CC1(C)C(CBr)=[N+]([O-])C(C)(C)N1O | 5.71 µM (inactive) | 2.56 µM (inactive) | > 10 µM (inactive) | > 5.6 µM (inactive) | > 4.6 µM (inactive) | > 8.75 µM (inactive) | > 10 µM (inactive) | 3.7 µM (inactive) | 4.91 µM (inactive) | 3.99 µM (inactive) | 2.57 µM (inactive) | > 10 µM (inactive) | > 10 µM (inactive) | > 10 µM (inactive) | > 10 µM (inactive) | 4.04 µM (inactive) | 2.16 µM (inactive) | 5.5 µM (inactive) | > 10 µM (inactive) | 7.59 µM (inactive)
7 | C=C(C)[C@@H](O)[C@H](O)C[C@H](C)C1CC[C@]2(C)C1=CC[C@@H]1[C@@]3(C)CC[C@@H](OC(C)=O)C(C)(C)[C@@H]3C[C@@H](OC3OC(COC(C)=O)C(O)C(O)C3O)[C@]12C (stereo not given in full) | 3.44 µM (inactive) | 3.52 µM (inactive) | 3.4 µM (inactive) | 3.03 µM (inactive) | 2.05 µM (inactive) | 2.02 µM (inactive) | 2.81 µM (inactive) | 1.73 µM (inactive) | 2.96 µM (inactive) | 2.81 µM (inactive) | 2.17 µM (inactive) | 3.05 µM (inactive) | 2.45 µM (inactive) | 2.16 µM (inactive) | 3.48 µM (inactive) | 3.21 µM (inactive) | 2.48 µM (inactive) | 3.39 µM (inactive) | 2.32 µM (inactive) | 1.9 µM (inactive)
8 | CC(C)NC(=O)OCc1c(COC(=O)NC(C)C)c(-c2ccc[n+](COC(=O)C(C)(C)C)c2)n2c1CCC2 | 40.7 µM (inactive) | 27.6 µM (inactive) | > 91.4 µM (inactive) | > 100 µM (inactive) | > 53.2 µM (inactive) | > 100 µM (inactive) | > 67.5 µM (inactive) | 46.6 µM (inactive) | 57.5 µM (inactive) | > 100 µM (inactive) | 48.2 µM (inactive) | > 91 µM (inactive) | 40.9 µM (inactive) | 65 µM (inactive) | > 74.1 µM (inactive) | 54.1 µM (inactive) | > 100 µM (inactive) | > 100 µM (inactive) | > 76.9 µM (inactive) | 35.5 µM (inactive)
9 | CCOc1cc2c(cc1O)CC[C@@H]1[C@@H]2CC[C@]2(C)C(OS(=O)OC3CC[C@@H]4[C@H]5CCc6cc(O)c(OCC)cc6[C@@H]5CC[C@@]34C)CC[C@@H]12 (stereo not given in full) | 0.583 µM (active) | 2.45 µM (inactive) | 1.62 µM (inactive) | 3.21 µM (inactive) | 0.173 µM (active) | 22.6 µM (inactive) | 3.25 µM (inactive) | 0.752 µM (active) | 0.452 µM (active) | 0.117 µM (active) | 1.14 µM (inactive) | 2.49 µM (inactive) | 0.581 µM (active) | 0.982 µM (active) | 1.16 µM (inactive) | 1.68 µM (inactive) | 5.66 µM (inactive) | 19.7 µM (inactive) | 0.33 µM (active) | 1.19 µM (inactive)
10 | CC(=O)C(C(c1ccccc1)N1CCOCC1)N1CCOCC1 (stereo not given) | > 100 µM (inactive) | > 100 µM (inactive) | > 100 µM (inactive) | > 100 µM (inactive) | > 100 µM (inactive) | > 100 µM (inactive) | > 100 µM (inactive) | > 100 µM (inactive) | > 100 µM (inactive) | > 100 µM (inactive) | > 100 µM (inactive) | > 100 µM (inactive) | 19.2 µM (inactive) | > 100 µM (inactive) | > 100 µM (inactive) | > 100 µM (inactive) | > 100 µM (inactive) | 22.6 µM (inactive) | > 100 µM (inactive) | > 100 µM (inactive)
11 | NC(=O)C1CCCN1Cc1ccc2c(c1)OCO2 (stereo not given) | > 100 µM (inactive) | > 100 µM (inactive) | > 100 µM (inactive) | > 100 µM (inactive) | > 100 µM (inactive) | > 100 µM (inactive) | > 100 µM (inactive) | > 100 µM (inactive) | > 100 µM (inactive) | > 100 µM (inactive) | > 100 µM (inactive) | > 100 µM (inactive) | > 100 µM (inactive) | > 100 µM (inactive) | > 100 µM (inactive) | > 100 µM (inactive) | > 100 µM (inactive) | > 100 µM (inactive) | > 100 µM (inactive) | > 100 µM (inactive)
